Experimental data from US6509002B1, “Diagnostic agent for diabetes” (priority 1997, dated 2003).

Assays:
[1] = ^13C breath test, oral administration, diabetic vs normal rats; assay type: in vivo, rat; settings: for slope from 20 to 30 min after the administration / Δ^13C value (‰) at 30 min after the administration: 300 mg/kg orally, Example 6; for slope from 12 to 17 min after the administration: 90 mg/kg orally, Example 38
Method: As test animals, male Sprague-Dawley strain (SD) neonatal rats were purchased from Nippon Charles River K. K. together with their lactating rats. They were bred at 23±2° C. under 55±10% humidity before use. Insulin secretion-deficient type diabetes was generated by administering streptozotocin (STZ) to neonatal rats (“Saibokogaku (Cell Engineering)”, Extra Issue, medical Experiment Manual Series, Strategy for Study of Diabetes, edited by Susumu Seino and Yoshikazu Oka, published by Shujunsha Co., Japan). STZ was subcutaneously administered to 2-day-old rats at a dose of 90 mg/kg. The STZ had been dissolved in a citrate buffer (pH 4.5) and was administered within 5 min after the dissolution. Two days after the administration, blood was collected by cardiac puncture, and the casual blood sugar level of each rat was measured with Terumo […] (blood sugar measurement set). […] However, their fasting blood sugar levels increase only slightly and remain at almost normal levels. According to the standards stipulated by the Japan Diabetes Society (1982), those individuals with a fasting blood sugar level (in venous whole blood) of […] or more are regarded as having diabetes (“[…] (Diabetes Test Manual)”, edited by Yukio […], published by Nanko-Do Co., Japan). Then, those rats with a fasting blood sugar level of less than 120 mg/dl (and with a casual blood sugar level of 250 mg/dl or more) which are not regarded as having diabetes in a fasting blood sugar level test were selected from the above-described rats with insulin secretion-deficient type diabetes and used as a model of light diabetes. Breath tests were carried out according to the method as described in (2)-1 or (2)-2 below on diabetic rats prepared in (1) above (8-10-week-old) and normal rats (8-10-week-old). Δ^13C (‰)=[(^13C t min-^13C 0 min)/^13C std]×1000 […] A blood sample was collected from the tail vein, and its sugar level was determined using Terumo […] (blood sugar measurement set). The exhalation was sucked with a stroke pump 18 (variable stroke pump VS-500; Shibata Scientific Technology) at a rate of 100-300 ml/min and introduced directly into a flow cell in ^13CO2 Analyzer EX-130S (Japan Spectroscopic Co., Ltd.) 20. […] Pure Drier ([…] Pure Inc.) was located between the rat holder and the stroke pump 18 to remove moisture in the exhalation (FIG. 1). […] The data output from the ^13CO2 analyzer 20 were incorporated into a personal computer 21 (Apple Power Macintosh 8500) after AD conversion. Using the data processing software Lab VIEW (National Instruments), data on ten points at every 100 msec were added up and averaged at intervals of 5 sec and then converted into ^13C atom %, Δ^13C (‰) and CO2 gas concentration (%), to thereby perform a continuous measurement ^13C breath test. […] Δ^13C (‰) was calculated by the formula described above.

[2] = ^13C breath test, intravenous administration (femoral vein), diabetic vs normal rats; assay type: in vivo, rat
Text: As test animals, male Sprague-Dawley strain (SD) neonatal rats were purchased from Nippon Charles River K. K. together with their lactating rats. […] Insulin secretion-deficient type diabetes was generated by administering streptozotocin (STZ) to neonatal rats (“Saibokogaku (Cell Engineering)”, Extra Issue, medical Experiment Manual Series, Strategy for Study of Diabetes, edited by Susumu Seino and Yoshikazu Oka, published by Shujunsha Co., Japan). STZ was subcutaneously administered to 2-day-old rats at a dose of 90 mg/kg. […] Two days after the administration, blood was collected by cardiac puncture, and the casual blood sugar level of each rat was measured with Terumo […] (blood sugar measurement set). […] Breath tests were carried out according to the method as described in (2)-1 or (2)-2 below on diabetic rats prepared in (1) above (8-10-week-old) and normal rats (8-10-week-old). […] A blood sample was collected from the tail vein, and its sugar level was determined using Terumo […] (blood sugar measurement set). […] Fine Science Tools Inc.).

[3] = diabetic rats, 50 mg/kg orally, Example 33
[4] = normal rats, 50 mg/kg orally, Example 33
[5] = diabetic rats, 45 mg/kg orally, Example 26
[6] = normal rats, 45 mg/kg orally, Example 26
[7] = diabetic rats, 50 mg/kg from the femoral vein, Example 16
[8] = normal rats, 50 mg/kg from the femoral vein, Example 16
[9] = diabetic rats, 10 mg/kg from the femoral vein, Example 15
[10] = normal rats, 10 mg/kg from the femoral vein, Example 15
[11] = diabetic rats, 60 mg/kg orally, Example 17
[12] = normal rats, 60 mg/kg orally, Example 17
[13] = diabetic rats, 20 mg/kg from the femoral vein, Example 11
[14] = normal rats, 20 mg/kg from the femoral vein, Example 11
[15] = diabetic rats, 50 mg/kg from the femoral vein, Example 35
[16] = normal rats, 50 mg/kg from the femoral vein, Example 35
[17] = diabetic rats, 50 mg/kg from the femoral vein, Example 27
[18] = normal rats, 50 mg/kg from the femoral vein, Example 27
[19] = diabetic rats, 40 mg/kg from the femoral vein, Example 36
[20] = normal rats, 40 mg/kg from the femoral vein, Example 36
[21] = diabetic rats, 30 mg/kg orally, Example 7
[22] = normal rats, 30 mg/kg orally, Example 7

CCCCCCC[13C](=O)OCC(CO[13C](=O)CCCCCCC)O[13C](=O)CCCCCCC [1,1,1-^13C-trioctanoin]
time course of Δ^13C values (‰) [1, 3]: continued increasing up to 30 min | Δ^13C value (‰) at 20 min after the administration [1, 3]: 150.72±22.48 ‰ | time course of Δ^13C values (‰) [1, 4]: continued increasing up to 30 min | Δ^13C value (‰) at 20 min after the administration [1, 4]: 110.16±16.08 ‰

NC(CSSCC(N)[13C](=O)O)[13C](=O)O (stereo not drawn) [1-^13C-cystine]
slope from 5 to 10 min after the administration [1, 5]: 46.82±2.94 ‰/5 min | time course of Δ^13C values (‰) [1, 5]: continued increasing up to 30 min | Δ^13C value (‰) at 10 min after the administration [1, 5]: 69.15±6.44 ‰ | slope from 5 to 10 min after the administration [1, 6]: 30.86±10.06 ‰/5 min | time course of Δ^13C values (‰) [1, 6]: continued increasing up to 30 min | Δ^13C value (‰) at 10 min after the administration [1, 6]: 45.26±8.68 ‰

N[C@@H](CO)[13C](=O)O [1-^13C-serine]
slope from 1 to 4 min after the administration [2, 7]: 158.13±41.24 ‰/3 min | time course of Δ^13C values (‰) [2, 7]: increased sharply up to about 8 min after the administration, but thereafter decreased gradually up to 20 min | Δ^13C value (‰) at 10 min after the administration [2, 7]: 228.08±43.45 ‰ | slope from 1 to 4 min after the administration [2, 8]: 84.17±11.38 ‰/3 min | time course of Δ^13C values (‰) [2, 8]: increased up to about 8 min after the administration of 1-^13C-serine, and thereafter remained at an almost constant level | Δ^13C value (‰) at 10 min after the administration [2, 8]: 127.79±10.69 ‰

N[C@@H](Cc1c[nH]c2ccccc12)[13C](=O)O [1-^13C-tryptophan]
slope from 10 to 15 min after the administration [2, 9]: 4.46±0.49 ‰/5 min | time course of Δ^13C values (‰) [2, 9]: continued increasing up to 20 min | Δ^13C value (‰) at 20 min after the administration [2, 9]: 19.42±4.37 ‰ | slope from 10 to 15 min after the administration [2, 10]: 1.20±0.93 ‰/5 min | time course of Δ^13C values (‰) [2, 10]: continued increasing up to 20 min | Δ^13C value (‰) at 20 min after the administration [2, 10]: 8.10±0.77 ‰

N[C@@H](C[13c]1ccc(O)cc1)C(=O)O [1-^13C-tyrosine]
slope from 5 to 10 min after the administration [1, 11]: 79.62±19.90 ‰/5 min | time course of Δ^13C values (‰) [1, 11]: increased up to about 20 min after the administration, but thereafter decreased gradually up to 30 min | Δ^13C value (‰) at 20 min after the administration [1, 11]: 205.30±51.43 ‰ | slope from 5 to 10 min after the administration [1, 12]: 27.52±17.10 ‰/5 min | time course of Δ^13C values (‰) [1, 12]: continued increasing up to 30 min | Δ^13C value (‰) at 20 min after the administration [1, 12]: 73.96±35.10 ‰

CC(C)[C@H](N)[13C](=O)O [1-^13C-valine]
slope from 2 to 4 min after the administration [2, 13]: 38.55±3.15 ‰/2 min | time course of Δ^13C values (‰) [2, 13]: sharply increased up to about 6 min after the administration of 1-^13C-valine, and thereafter increased gradually up to 20 min | Δ^13C value (‰) at 5 min after the administration [2, 13]: 73.54±7.30 ‰ | slope from 2 to 4 min after the administration [2, 14]: 24.17±2.32 ‰/2 min | time course of Δ^13C values (‰) [2, 14]: sharply increased up to about 6 min after the administration of 1-^13C-valine, and thereafter increased gradually up to 20 min | Δ^13C value (‰) at 5 min after the administration [2, 14]: 45.99±5.62 ‰

O=[13CH][C@H](O)[C@@H](O)[C@H](O)CO [1-^13C-xylose]
slope from 20 to 30 min after the administration ([1]; diabetic rats): 12.80±2.18 ‰/10 min | Δ^13C value (‰) at 30 min after the administration ([1]; diabetic rats): 23.40±7.60 ‰ | slope from 20 to 30 min after the administration ([1]; normal rats): 4.61±1.40 ‰/10 min | Δ^13C value (‰) at 30 min after the administration ([1]; normal rats): 6.82±3.02 ‰

O=[13C](CO)[C@@H](O)[C@H](O)[C@H](O)CO [2-^13C-fructose]
Δ^13C value (‰) at 20 min after the administration ([2]; rat, in vivo): 94.68 ‰ | slope from 2 to 6 min after the administration ([2]; rat, in vivo, 100 mg/kg): 21.4±1.84 ‰/4 min | Δ^13C value (‰) at 20 min after the administration ([2]; rat, in vivo, 100 mg/kg): 58.75±2.73 ‰

O=C[13C@H](O)[C@@H](O)[C@@H](O)[C@H](O)CO [2-^13C-galactose]
time course of Δ^13C values (‰) ([2]; rat, in vivo, 100 mg/kg): continued increasing up to 20 min

OC[13CH](O)CO [2-^13C-glycerol]
slope from 2 to 7 min after the administration [2, 15]: 62.72±3.22 ‰/5 min | time course of Δ^13C values (‰) [2, 15]: increased sharply up to about 8 min after the administration, and thereafter increased gradually up to 20 min | Δ^13C value (‰) at 20 min after the administration [2, 15]: 112.44±5.12 ‰ | slope from 2 to 7 min after the administration [2, 16]: 16.99±1.61 ‰/5 min | time course of Δ^13C values (‰) [2, 16]: continued increasing gradually up to 20 min after the administration of 2-^13C-glycerol, and thereafter remained at an almost constant level | Δ^13C value (‰) at 20 min after the administration [2, 16]: 54.77±4.23 ‰

[13CH3]C(O)C(=O)[O-].[Na+] (stereo not drawn) [3-^13C-sodium lactate]
^13C value (‰) at 10 min after the administration [2, 17]: 202.08±6.05 ‰ | slope from 2 to 4 min after the administration [2, 17]: 96.83±17.69 ‰/2 min | time course of Δ^13C values (‰) [2, 17]: increased sharply up to about 7 min after the administration, but thereafter decreased gradually up to 20 min | ^13C value (‰) at 10 min after the administration [2, 18]: 130.30±11.47 ‰ | slope from 2 to 4 min after the administration [2, 18]: 60.69±6.80 ‰/2 min | time course of Δ^13C values (‰) [2, 18]: increased sharply up to about 5 min after the administration of 3-^13C-sodium lactate, and thereafter increased gradually up to 20 min

Cc1c(N([13CH3])[13CH3])c(=O)n(-c2ccccc2)n1C [N,N-dimethyl-^13C-aminopyrin]
slope from 1 to 2 min after the administration [2, 19]: 95.68±16.33 ‰/min | time course of Δ^13C values (‰) [2, 19]: increased sharply up to about 5 min after the administration, and thereafter remained at an almost constant level up to 20 min | Δ^13C value (‰) at 20 min after the administration [2, 19]: 193.62±22.21 ‰ | slope from 1 to 2 min after the administration [2, 20]: 41.16±8.89 ‰/min | time course of Δ^13C values (‰) [2, 20]: increased sharply up to about 3 min after the administration of N,N-dimethyl-^13C-aminopyrin, and thereafter increased gradually up to 20 min | Δ^13C value (‰) at 20 min after the administration [2, 20]: 92.2±12.64 ‰

U-^13C-starch
^13C value (‰) at 30 min after the administration [1, 21]: 144.50±23.27 ‰ | time course of Δ^13C values (‰) [1, 21]: continued increasing up to 20 min | ^13C value (‰) at 30 min after the administration [1, 22]: 213.89±4.66 ‰ | time course of Δ^13C values (‰) [1, 22]: continued increasing up to 20 min

ethoxy-^13C-methacetin
slope from 12 to 17 min after the administration ([1]; diabetic rats): −8.40±7.67 ‰/5 min | slope from 12 to 17 min after the administration ([1]; normal rats): 16.05±7.71 ‰/5 min
